pIC50: −log10 of the molar value. “Also recorded” adds a separate entry of the source. Like-named read-outs stand apart in the source and are kept apart here.
Experiments:
D-6 Sierra Leone Clone = details: cited from earlier work; for Artemisinin Indices, D-6 Sierra Leone Clone: intrinsic equimolar activity relative to the simultaneous artemisinin control; for pIC50: Table V, read-out: Fifty Percent Inhibitory Concentrations, D-6 Sierra Leone Clone
[1] = test system: P. falciparum malaria parasite clone Sierra Leone (D-6); experiment: in vitro susceptibility testing, uptake of tritiated hypoxanthine as index of inhibition of parasite growth, Sierra Leone (D-6) clone; details: Plasmodium falciparum; for pIC50: read-out: D6 IC50
[2] = test system: P. falciparum malaria parasite clones; experiment: anti-malarial activity in words (overall, both P. falciparum clones)
[3] = test system: P. falciparum malaria parasite clone Indochina (W-2); experiment: in vitro susceptibility testing, uptake of tritiated hypoxanthine as index of inhibition of parasite growth, Indochina (W-2) clone; assay type: cell-based; details: Plasmodium falciparum; for pIC50: read-out: W2 IC50
[4] = test system: P. falciparum D-6 African Clone; experiment: anti-malarial in vitro testing against P. falciparum clones, D-6 African clone; assay type: cell-based; details: Table VI, D-6 value over W-2 value
W-2 Indochine Clone = details: cited from earlier work; for pIC50: Table V, read-out: Fifty Percent Inhibitory Concentrations, W-2 Indochine Clone; for Artemisinin Indices, W-2 Indochine Clone: intrinsic equimolar activity relative to the simultaneous artemisinin control
[5] = Table IV, W2, read-out: W2 IC90
[6] = compared with known anti-malarial drugs
[7] = Table III, INDOCHINA CLONE (W-2), read-out: IC90

IC90 [1] [nM] | pIC50 ([3]; Table IV, W2) | pIC50 [1] | SMILES | Artemisinin Indices, D-6 Sierra Leone Clone (D-6 Sierra Leone Clone) | pIC50 (W-2 Indochine Clone) | Artemisinin Indices, W-2 Indochine Clone (W-2 Indochine Clone) | pIC50 (D-6 Sierra Leone Clone) | further results
 |  |  | C=C[C@H]1C[N@@]2CC[C@H]1C[C@H]2[C@H](O)c1ccnc2ccc(OC)cc12 [Quinine] | 0.09 |  |  |  | 
857 |  |  | COC1OC2(C)CCC3CCCC(CCOC(=O)c4ccc(C(=O)OCCC5CCCC6CCC7(C)OOC56C(OC)O7)cc4)C31OO2 (stereo not shown) [Compound 22] |  |  |  |  | 
 | > 9.80 | 9.57 | COC1OC2(C)CCC3CCCC(CCOC(=O)N(c4ccccc4)c4ccccc4)C31OO2 (stereo not shown) [Compound 31] |  |  |  |  | IC90 [3, 5]: < 0.18 nM; anti-malarial activity / potency in words [2, 6]: substantial improvement over artemisinin; also recorded: comparable in potency to arteether; also recorded: higher potency than artemisinin; also recorded: particularly potent; IC90 ([1]; read-out: D6 IC90): 2.25 nM
 | < 6.60 | 8.97 | CCc1nc(N)nc(N)c1-c1ccc(Cl)cc1 [Pyrimethamine] | 26.11 | 6.75 | 0.03 | 9.40 | 
 |  |  | CCN(CC)C(=O)c1ccc(C(=O)OCCC2CCCC3CCC4(C)OOC23C(OC)O4)cc1 (stereo not shown) [Compound 21] |  |  |  |  | anti-malarial activity / potency in words [2, 6]: substantial improvement over artemisinin; also recorded: comparable in potency to arteether; also recorded: comparable in potency to artemether; also recorded: considerably higher potency than the clinically used Chinese drug, artemisinin
 |  |  | COc1ncnc(NS(=O)(=O)c2ccc(N)cc2)c1OC [Sulfadoxine] | 0.11 | 4.09 | < 0.01 | 7.05 | 
19 |  |  | COC1OC2(C)CCC3CCCC(CCOS(=O)(=O)c4ccc(C)cc4)C31OO2 (stereo not shown) [Compound 23] |  |  |  |  | IC90 [3, 7]: 10.2 nM
 | 8.98 | 8.29 | COC1OC2(C)CCC3CCCC(CCOS(=O)(=O)c4cccc5c(N(C)C)cccc45)C31OO2 (stereo not shown) [Compound 32] |  |  |  |  | IC90 [3, 5]: 7.17 nM; IC90 ([1]; read-out: D6 IC90): 10 nM
 |  |  | CO[C@H]1O[C@@H]2O[C@@]3(C)CC[C@H]4[C@H](C)CC[C@@H]([C@H]1C)[C@@]24OO3 [Artemether] | 2.34 | 8.48 | 1.92 | 8.35 | 
 |  |  | C[C@H]1[C@@H](O)O[C@@H]2O[C@@]3(C)CC[C@H]4[C@H](C)CC[C@@H]1[C@@]24OO3 [Dihydroartemisinin] | 5.75 | 8.75 | 3.58 | 8.74 | 
13.7 |  |  | COCCC1CCCC2CCC3(C)OOC12C(OC)O3 (stereo not shown) [Compound 101] |  |  |  |  | IC90 [3, 7]: 4.62 nM
58.8 |  |  | COC(=O)c1ccccc1S(=O)(=O)OCCC1CCCC2CCC3(C)OOC12C(OC)O3 (stereo not shown) [Compound 24] |  |  |  |  | IC90 [3, 7]: 19.7 nM
 |  |  | CCO[C@@H]1O[C@@H]2O[C@@]3(C)CC[C@H]4[C@H](C)CC[C@@H]([C@H]1C)[C@@]24OO3 [Arteether (alpha)] | 2.52 | 8.51 | 2.08 | 8.38 | 
20.4 |  |  | COC1OC2(C)CCC3CCCC(CCOC(=O)c4ccc(C(=O)OCCN(C)C)cc4)C31OO2 (stereo not shown) [Compound 20] |  |  |  |  | IC90 [3, 7]: 24.7 nM
 | > 9.55 | 9.41 | CCN(CC)C(=O)OCCC1CCCC2CCC3(C)OOC12C(OC)O3 (stereo not shown) [Compound 34] |  |  |  |  | IC90 [3, 5]: < 0.28 nM; anti-malarial activity / potency in words [2, 6]: comparable in potency to arteether; also recorded: higher potency than artemisinin; also recorded: particularly potent; IC90 ([1]; read-out: D6 IC90): 1.18 nM
 | 9.96 | 8.45 | OC(c1cc(C(F)(F)F)nc2c(C(F)(F)F)cccc12)C1CCCCN1 (stereo not shown) [Mefloquine] | 0.31 | 8.24 | 1.11 | 7.48 | 
 |  |  | C[C@H]1[C@@H](OCc2ccc(C(=O)O)cc2)O[C@@H]2O[C@@]3(C)CC[C@H]4[C@H](C)CC[C@@H]1[C@@]24OO3 [Artelinic Acid] | 1.08 | 8.48 | 1.94 | 8.01 | 
4.43 |  |  | COC1OC2(C)CCC3CCCC(CCOC(=O)CNC(=O)OC(C)(C)C)C31OO2 (stereo not shown) [Compound 25] |  |  |  |  | anti-malarial activity / potency in words [2, 6]: substantial improvement over artemisinin
 | > 9.49 | 8.94 | COC1OC2(C)CCC3CCCC(CCI)C31OO2 (stereo not shown) [Compound 301] |  |  |  |  | IC90 [3, 5]: < 0.32 nM; IC90 ([1]; read-out: D6 IC90): 6.33 nM
 | 9.49 | 8.97 | C=CCOCCC1CCCC2CCC3(C)OOC12C(OC)O3 (stereo not shown) [Compound 104] |  |  |  |  | IC90 [3, 5]: 2.37 nM; anti-malarial activity / potency in words [2, 6]: particularly potent anti-malarial activity; IC90 ([1]; read-out: D6 IC90): 15.7 nM
 | 9.47 | 8.74 | COC1OC2(C)CCC3CCCC(CCOCc4c(C)noc4C)C31OO2 (stereo not shown) [Compound 105] |  |  |  |  | IC90 [3, 5]: 1.64 nM; anti-malarial activity / potency in words [2, 6]: particularly potent anti-malarial activity; IC90 ([1]; read-out: D6 IC90): 19.1 nM
3.93 |  |  | COC1OC2(C)CCC3CCCC(CCOC(=O)N(C)C)C31OO2 (stereo not shown) [Compound 26] |  |  |  |  | IC90 [3, 7]: 1.29 nM; anti-malarial activity / potency in words [2, 6]: particularly potent
 | 9.60 | 8.91 | COC1OC2(C)CCC3CCCC(CCOCc4ccccc4)C31OO2 (stereo not shown) [Compound 102] |  |  |  |  | IC90 [3, 5]: 1.53 nM; anti-malarial activity / potency in words [2, 6]: particularly potent anti-malarial activity; IC90 ([1]; read-out: D6 IC90): 3.27 nM
 |  |  | CCO[C@H]1O[C@@H]2O[C@@]3(C)CC[C@H]4[C@H](C)CC[C@@H]([C@H]1C)[C@@]24OO3 [Arteether (beta)] | 2.58 | 8.53 | 2.18 | 8.39 | 
30.2 |  |  | COC1OC2(C)CCC3CCCC(CCOS(=O)(=O)N(C)C)C31OO2 (stereo not shown) [Compound 27] |  |  |  |  | IC90 [3, 7]: 23 nM
115 | 7.62 | 6.59 | COC1OC2(C)CCC3CCCC(CCOC(=O)c4ccc(C(=O)O)cc4)C31OO2 (stereo not shown) [Compound 36] |  |  |  |  | IC90 [3, 7]: 46.1 nM; IC90 [3, 5]: 979 nM; IC90 ([1]; read-out: D6 IC90): 516 nM
 |  |  | COC(=O)c1ccc(C(=O)OCCC2CCCC3CCC4(C)OOC23C(OC)O4)cc1 (stereo not shown) [Compound 19] |  |  |  |  | anti-malarial activity / potency in words [2, 6]: substantial improvement over artemisinin; also recorded: comparable in potency to arteether; also recorded: comparable in potency to artemether; also recorded: considerably higher potency than the clinically used Chinese drug, artemisinin
 | 9.17 | 9.16 | C[C@@H]1CC[C@H]2[C@@H](C)C(=O)O[C@@H]3O[C@@]4(C)CC[C@@H]1[C@]32OO4 [Artemisinin, artemisinin] | 1.00 | 8.19 | 1.00 | 7.98 | Ratio of D-6/W-2 [4]: 2.4
 |  |  | CCCCN(CCCC)CCC(O)c1cc2c(Cl)cc(Cl)cc2c2cc(C(F)(F)F)ccc12 (stereo not shown) [Halofantrine] | 1.35 | 9.12 | 8.43 | 8.11 | 

SMILES | IC90 [1] [nM] | pIC50 ([3]; Table IV, W2) | pIC50 [1] | Artemisinin Indices, D-6 Sierra Leone Clone (D-6 Sierra Leone Clone) | pIC50 (W-2 Indochine Clone) | Artemisinin Indices, W-2 Indochine Clone (W-2 Indochine Clone) | pIC50 (D-6 Sierra Leone Clone) | further results
CCOP(=O)(OCC)OCCC1CCCC2CCC3(C)OOC12C(OC)O3 (stereo not shown) [Compound 28] | 0.99 |  |  |  |  |  |  | anti-malarial activity / potency in words [2]: substantial improvement over artemisinin; also recorded: comparable in potency to arteether; also recorded: higher potency than artemisinin; also recorded: particularly potent
CCOP(=O)(COCCC1CCCC2CCC3(C)OOC12C(OC)O3)OCC (stereo not shown) [Compound 103] |  |  | 8.52 |  |  |  |  | pIC50 [3]: 9.02; IC90 ([3]; read-out: W2 IC90): 8.2 nM; IC90 ([1]; read-out: D6 IC90): 29.9 nM
CCN(CC)CCCC(C)Nc1ccnc2cc(Cl)ccc12 (stereo not shown) [Chloroquine] |  |  | 8.92 | 0.97 | 7.00 | 0.06 | 7.96 | pIC50 [3]: 7.21; Ratio of D-6/W-2 [4]: 0.1
